US12391737B2, “Soluble NPY2 receptor agonists” (Boehringer Ingelheim International GmbH, priority 2020, dated 2025)

Columns and labels:
[1] = biological target: T1, Human Neuropeptide Y2 Receptor (Homo sapiens, UniProt P49146); test: Radioligand binding competition assay (RLB); conditions: Table 3, 125I-PYY(1-36) competition; read-out: Ki
T1 construct: purchased CHEMICON HTS066M
T1 sequence (P49146 1-381): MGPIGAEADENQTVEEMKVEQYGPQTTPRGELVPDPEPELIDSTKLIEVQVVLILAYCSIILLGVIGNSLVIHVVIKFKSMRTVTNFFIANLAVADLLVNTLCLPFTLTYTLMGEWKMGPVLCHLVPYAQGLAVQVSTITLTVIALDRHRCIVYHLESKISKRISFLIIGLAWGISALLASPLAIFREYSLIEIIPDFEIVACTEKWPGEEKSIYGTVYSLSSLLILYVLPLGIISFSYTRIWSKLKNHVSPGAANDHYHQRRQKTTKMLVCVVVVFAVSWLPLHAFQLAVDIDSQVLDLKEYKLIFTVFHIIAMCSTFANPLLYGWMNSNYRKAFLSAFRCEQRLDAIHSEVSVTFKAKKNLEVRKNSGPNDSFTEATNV
Outline: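 Competition binding used membranes expressing the receptor (0.5 μg protein/well) in 50 mM HEPES, 5 mM MgCl2, 1 mM CaCl2, pH 7.4 with 0.2% ovalbumin, incubated 2 h at room temperature with shaking. Bound radioligand was collected by filtration onto PEI-soaked GF/C filters and counted; IC50 from nonlinear sigmoidal fits.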

Solubility determination = conditions: for Sol6: pH 6; for Sol7: pH 7
Outline: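 Sample: TFA-salt peptide at 10 mg/ml target in 0.1 M Na diphosphate, pH 6.4 or 7.0, shaken 2 h RT, filtered, diluted to 1 mg/ml.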

Row | Structure (SMILES) | Ki [1] | Sol6 (Solubility determination) | Sol7 (Solubility determination)
1 | CC[C@H](C)[C@H](NC(=O)[C@H](Cc1ccc(O)cc1)NC(=O)[C@H](Cc1ccc(O)cc1)NC(=O)[C@H](CCCNC(=N)N)NC(=O)[C@H](CCC(N)=O)NC(=O)[C@H](CC(C)C)NC(=O)[C@H](CCC(=O)O)NC(=O)[C@H](CCC(=O)O)NC(=O)[C@@H]1CCCN1C(=O)[C@@H](NC(=O)[C@H](C)NC(=O)[C@H](C)NC(=O)[C@H](CCC(=O)O)NC(=O)[C@H](CCC(=O)O)NC(=O)[C@@H]1CCCN1C(=O)[C@H](CCCCNC(=O)CCCCCNC(=O)CC[C@H](NC(=O)CCCCCCCCCCCCCCCCC(=O)O)C(=O)O)NC(=O)[C@H](C)NC(=O)[C@@H]1CCCN1C(=O)[C@H](C)NC(=O)CC(C)C)[C@@H](C)O)C(=O)N[C@@H](CO)C(=O)N[C@@H](CC(C)C)C(=O)N[C@@H](CCCNC(=N)N)C(=O)N[C@@H](Cc1c[nH]cn1)C(=O)N[C@@H](Cc1ccc(O)cc1)C(=O)N[C@@H](Cc1ccc(O)cc1)C(=O)N[C@@H](CC(N)=O)C(=O)N[C@@H](Cc1c[nH]c2ccccc12)C(=O)N[C@@H](CC(C)C)C(=O)N[C@H](C(=O)N[C@@H](CCCNC(=N)N)C(=O)N[C@@H](CCC(N)=O)C(=O)N[C@@H](CCCNC(=N)N)C(=O)N[C@@H](Cc1ccc(O)cc1)C(N)=O)[C@@H](C)O [Compound 48, N{alpha-4}-(3-methylbutanoyl)-N{epsilon-7}-(6-[(4S)-4-carboxy-4-(17-carboxyheptadecanamido)butanamido]hexanoyl)-[4A,6A,7K,9E,11A,13T,18Q,22I,28Y,30W,31L]-hPYY(4-36)] | 1.54 nM | 0.0 mg/mL | 0.3 mg/mL
2 | CC(C)CC(=O)N[C@@H](C)C(=O)N1CCC[C@H]1C(=O)N[C@@H](CCC(=O)O)C(=O)N[C@@H](CCCCNC(=O)CCCCCNC(=O)CC[C@H](NC(=O)CCCCCCCCCCCCCCCCC(=O)O)C(=O)O)C(=O)N1CCC[C@H]1C(=O)N[C@@H](CCC(=O)O)C(=O)N[C@@H](CCC(=O)O)C(=O)N[C@@H](CC(=O)O)C(=O)N1CCC[C@H]1C(=O)N[C@H](C(=O)N1CCC[C@H]1C(=O)N[C@@H](CCC(=O)O)C(=O)N[C@@H](CCC(=O)O)C(=O)N[C@@H](CC(C)C)C(=O)N[C@@H](CCC(N)=O)C(=O)N[C@@H](CCCNC(=N)N)C(=O)N[C@@H](Cc1ccc(O)cc1)C(=O)N[C@@H](Cc1ccc(O)cc1)C(=O)N[C@H](C(=O)N[C@@H](CO)C(=O)N[C@@H](CC(C)C)C(=O)N[C@@H](CCCNC(=N)N)C(=O)N[C@@H](Cc1c[nH]cn1)C(=O)N[C@@H](Cc1ccc(O)cc1)C(=O)N[C@@H](Cc1ccc(O)cc1)C(=O)N[C@@H](CC(N)=O)C(=O)N[C@@H](Cc1c[nH]c2ccccc12)C(=O)N[C@@H](CC(C)C)C(=O)N[C@H](C(=O)N[C@@H](CCCNC(=N)N)C(=O)N[C@@H](CCC(N)=O)C(=O)N[C@@H](CCCNC(=N)N)C(=O)N[C@@H](Cc1ccc(O)cc1)C(N)=O)[C@@H](C)O)C(C)C)[C@@H](C)O [Compound 22, N{alpha-4}-(3-methylbutanoyl)-N{epsilon-7}-(6-[(4S)-4-carboxy-4-(17-carboxyheptadecanamido)butanamido]hexanoyl)[4A,7K,9E,12P,13T,18Q,22V,28Y,30W,31L]-hPYY(4-36)] | 4.98 nM | 9.7 mg/mL | 9.8 mg/mL
3 | CC[C@H](C)[C@H](NC(=O)[C@H](CCC(=O)O)NC(=O)[C@H](CCC(=O)O)NC(=O)[C@@H]1CCCN1C(=O)[C@@H](NC(=O)[C@H](C)NC(=O)[C@H](C)NC(=O)[C@H](CCC(=O)O)NC(=O)[C@H](CCC(=O)O)NC(=O)[C@@H]1CCCN1C(=O)[C@H](CCCCNC(=O)CCCCCNC(=O)CC[C@H](NC(=O)CCCCCCCCCCCCCCCCC(=O)O)C(=O)O)NC(=O)[C@H](C)NC(=O)[C@@H]1CCCN1C(=O)[C@H](C)NC(=O)CC(C)C)[C@@H](C)O)C(=O)N[C@@H](CCC(N)=O)C(=O)N[C@@H](CCCNC(=N)N)C(=O)N[C@@H](Cc1ccc(O)cc1)C(=O)N[C@@H](Cc1ccc(O)cc1)C(=O)N[C@H](C(=O)N[C@@H](C)C(=O)N[C@@H](CC(C)C)C(=O)N[C@@H](CCCNC(=N)N)C(=O)N[C@@H](Cc1c[nH]cn1)C(=O)N[C@@H](Cc1ccc(O)cc1)C(=O)N[C@@H](Cc1ccc(O)cc1)C(=O)N[C@@H](CC(N)=O)C(=O)N[C@@H](Cc1c[nH]c2ccccc12)C(=O)N[C@@H](CC(C)C)C(=O)N[C@H](C(=O)N[C@@H](CCCNC(=N)N)C(=O)N[C@@H](CCC(N)=O)C(=O)N[C@@H](CCCNC(=N)N)C(=O)N[C@@H](Cc1ccc(O)cc1)C(N)=O)[C@@H](C)O)C(C)C [Compound 120, N{alpha-4}-(3-methylbutanoyl)-N{epsilon-7}-(6-[(4S)-4-carboxy-4-(17-carboxyheptadecanamido)butanamido]hexanoyl)-[4A,6A,7K,9E,11A,13T,17I,18Q,22V,23A,28Y,30W,31L]-hPYY(4-36)] | 1.49 nM | 0.0 mg/mL | 0.2 mg/mL
4 | CC(C)CC(=O)N[C@@H](C)C(=O)N1CCC[C@H]1C(=O)N[C@@H](CCC(=O)O)C(=O)N[C@@H](CCCCNC(=O)CCCCCNC(=O)CC[C@H](NC(=O)CCCCCCCCCCCCCCCCC(=O)O)C(=O)O)C(=O)N1CCC[C@H]1C(=O)N[C@@H](CCC(=O)O)C(=O)N[C@@H](CCC(=O)O)C(=O)N[C@@H](CC(=O)O)C(=O)N[C@@H](C)C(=O)N[C@H](C(=O)N1CCC[C@H]1C(=O)N[C@@H](CCC(=O)O)C(=O)N[C@@H](CCC(=O)O)C(=O)N[C@@H](CC(C)C)C(=O)N[C@@H](CCC(N)=O)C(=O)N[C@@H](CC(C)C)C(=O)N[C@@H](Cc1ccc(O)cc1)C(=O)N[C@@H](Cc1ccc(O)cc1)C(=O)N[C@H](C(=O)N[C@@H](CO)C(=O)N[C@@H](CC(C)C)C(=O)N[C@@H](CCCNC(=N)N)C(=O)N[C@@H](Cc1c[nH]cn1)C(=O)N[C@@H](Cc1ccc(O)cc1)C(=O)N[C@@H](Cc1ccc(O)cc1)C(=O)N[C@@H](CC(N)=O)C(=O)N[C@@H](Cc1c[nH]c2ccccc12)C(=O)N[C@@H](CC(C)C)C(=O)N[C@H](C(=O)N[C@@H](CCCNC(=N)N)C(=O)N[C@@H](CCC(N)=O)C(=O)N[C@@H](CCCNC(=N)N)C(=O)N[C@@H](Cc1ccc(O)cc1)C(N)=O)[C@@H](C)O)C(C)C)[C@@H](C)O [Compound 130, N{alpha-4}-(3-methylbutanoyl)-N{epsilon-7}-(6-[(4S)-4-carboxy-4-(17-carboxyheptadecanamido)butanamido]hexanoyl)-[4A,7K,9E,13T,18Q,19L,22V,28Y,30W,31L]-hPYY(4-36)] | 9.36 nM | 9.9 mg/mL | 10.0 mg/mL

Further molecules by falling Ki [1], results first:

Row | Ki [1] | Sol6 (Solubility determination) | Sol7 (Solubility determination) | Structure (SMILES)
5 | 3.37 nM | 9.7 mg/mL | 10.0 mg/mL | CC(C)CC(=O)N[C@@H](C)C(=O)N1CCC[C@H]1C(=O)N[C@@H](CCC(=O)O)C(=O)N[C@@H](CCCCNC(=O)CCCCCNC(=O)CC[C@H](NC(=O)CCCCCCCCCCCCCCCCC(=O)O)C(=O)O)C(=O)N1CCC[C@H]1C(=O)N[C@@H](CCC(=O)O)C(=O)N[C@@H](CCC(=O)O)C(=O)N[C@@H](CC(=O)O)C(=O)N[C@@H](C)C(=O)N[C@@H](CO)C(=O)N1CCC[C@H]1C(=O)N[C@@H](CCC(=O)O)C(=O)N[C@@H](CCC(=O)O)C(=O)N[C@@H](CC(C)C)C(=O)N[C@@H](CCC(N)=O)C(=O)N[C@@H](CCCNC(=N)N)C(=O)N[C@@H](Cc1ccc(O)cc1)C(=O)N[C@@H](Cc1ccc(O)cc1)C(=O)N[C@H](C(=O)N[C@@H](CCC(=O)O)C(=O)N[C@@H](CC(C)C)C(=O)N[C@@H](CCCNC(=N)N)C(=O)N[C@@H](Cc1c[nH]cn1)C(=O)N[C@@H](Cc1ccc(O)cc1)C(=O)N[C@@H](Cc1ccc(O)cc1)C(=O)N[C@@H](CC(N)=O)C(=O)N[C@@H](Cc1c[nH]c2ccccc12)C(=O)N[C@@H](CC(C)C)C(=O)N[C@H](C(=O)N[C@@H](CCCNC(=N)N)C(=O)N[C@@H](CCC(N)=O)C(=O)N[C@@H](CCCNC(=N)N)C(=O)N[C@@H](Cc1ccc(O)cc1)C(N)=O)[C@@H](C)O)C(C)C [Compound 125, N{alpha-4}-(3-methylbutanoyl)-N{epsilon-7}-(6-[(4S)-4-carboxy-4-(17-carboxyheptadecanamido)butanamido]hexanoyl)-[4A,7K,9E,18Q,22V,23E,28Y,30W,31L]-hPYY(4-36)]
6 | 2.06 nM | 8.7 mg/mL | 8.9 mg/mL | CC(C)CC(=O)N[C@@H](C)C(=O)N1CCC[C@H]1C(=O)N[C@@H](C)C(=O)N[C@@H](CCCCNC(=O)CCCCCNC(=O)CC[C@H](NC(=O)CCCCCCCCCCCCCCCCC(=O)O)C(=O)O)C(=O)N1CCC[C@H]1C(=O)N[C@@H](CCC(=O)O)C(=O)N[C@@H](CCC(=O)O)C(=O)N[C@@H](CC(=O)O)C(=O)N[C@@H](C)C(=O)N[C@@H](CO)C(=O)N[C@@H](CCC(=O)O)C(=O)N[C@@H](CCC(=O)O)C(=O)N[C@@H](CCC(=O)O)C(=O)N[C@@H](CC(C)C)C(=O)N[C@@H](CCC(N)=O)C(=O)N[C@@H](CCCNC(=N)N)C(=O)N[C@@H](Cc1ccc(O)cc1)C(=O)N[C@@H](Cc1ccc(O)cc1)C(=O)N[C@H](C(=O)N[C@@H](CO)C(=O)N[C@@H](CC(C)C)C(=O)N[C@@H](CCCNC(=N)N)C(=O)N[C@@H](Cc1c[nH]cn1)C(=O)N[C@@H](Cc1ccc(O)cc1)C(=O)N[C@@H](Cc1ccc(O)cc1)C(=O)N[C@@H](CC(N)=O)C(=O)N[C@@H](Cc1c[nH]c2ccccc12)C(=O)N[C@@H](CC(C)C)C(=O)N[C@H](C(=O)N[C@@H](CCCNC(=N)N)C(=O)N[C@@H](CCC(N)=O)C(=O)N[C@@H](CCCNC(=N)N)C(=O)N[C@@H](Cc1ccc(O)cc1)C(N)=O)[C@@H](C)O)C(C)C [Compound 185, N{alpha-4}-(3-methylbutanoyl)-N{epsilon-7}-(6-[(4S)-4-carboxy-4-(17-carboxyheptadecanamido)butanamido]hexanoyl)-[4A,6A,7K,9E,14E,18Q,22V,28Y,30W,31L]-hPYY(4-36)]
